Test results taken from US6906049B1, “Contraceptive medicine based on a progestational agent and an oestrogen and preparation method” (Laboratoire Theramex, priority 1996, dated 2005).

How the values were obtained:
[1] = tested on: women; assay: Another clinical trial, same methodology, with the progestative agent alone; assay type: in vivo; conditions: NOMAC 1.25 mg alone (n=3), treated cycle
Procedure: This synergistic effect of oestradiol is confirmed by comparing the results of this study with those of another clinical trial performed according to the same methodology, but with the progestative agent alone. […] On the other hand, the addition of oestradiol lowers the plasmatic levels of oestradiol, assayed 24 hours after taking the medicinal product, by about […]; this parameter is a good reflection of the endogenous secretion of the ovaries (Table II).

[2] = tested on: ovulation; assay: Inhibition of ovulation in women (literature data); assay type: in vivo; conditions: as defined by Neumann (1977)
Procedure: The oestrogenic component involves oestradiol or an ester or an ether thereof, such as, for example, the valerate, benzoate, enanthate, etc., the doses used being calculated as oestradiol equivalents. The doses range from 0.3 mg to 3 mg per day with a preference for a range from 0.5 mg to 2 mg per day. According to the literature data (Hirvonen, 1995), a dose of 4 mg is needed to ensure the inhibition of ovulation, but they correspond to the doses used to compensate for hypooestrogenic states. For example, in menopausal women, the dose recommended to compensate for hypooestrogenic states is about 1.5 mg.
(§1) The ratio of the ovulation-inhibiting activity in women (in mg/day) to the endometrial luteinizing |activity (in mg/cycle) as defined by Neumann (1977) is thus in the order of 0.2, i.e. close to those of cyproterone acetate and chlormadinone acetate; this indicates a strong central activity (Oettel et al., 1999). In this sense, it clearly differs from dienogest, whose activity is disequilibrated to the benefit of the peripheral activity.

[3] = tested on: endometrium; assay: Clinical trial similar to the Kaufmann's trial (endometrial conversion); assay type: in vivo, women
Excerpt: as §1

[4] = tested on: ovulation; conditions: cited from earlier work
[5] = tested on: female volunteers in the period of ovarian activity; assay: Randomized double-blind study of the anti-ovulatory action of the oestradiol/nomegestrol acetate combination in 38 female volunteers; assay type: in vivo, women; conditions: day 1-21, m ± sem
Procedure: The anti-ovulatory action of the oestradiol/nomegestrol acetate combination was evaluated in a randomized double-blind study on 38 female volunteers, in good health, aged 18 to 35, in the period of ovarian activity, for whom it was checked beforehand, by means of an assay of the progesterone in the plasma and the establishment of a temperature curve, that they had ovulatory menstrual cycles.
The women were monitored for two consecutive cycles: the first was a control cycle without treatment; during the following cycle (cycle under treatment), they received a hormonal treatment administered orally daily from the 1st to the 21st day of the cycle.
According to the randomization: • 9 women received 1.5 mg of oestradiol+0.625 mg of nomegestrol acetate (group A), • 10 others received 1.5 mg of oestradiol+1.25 mg of nomegestrol acetate (group B), • another 10 received 1.5 mg of oestradiol+2.5 mg of nomegestrol acetate (group C), • and the other 9 were treated with nomegestrol acetate alone at a dose of.2.5 mg (group D).
During the control cycle, the hormonal parameters were not significantively different among the four groups. Table I indicates the mean concentrations observed for each hormonal parameter in the course of the 21 days of treatment.

CC(=O)O[C@]1(C(C)=O)CC[C@H]2[C@@H]3C=C(C)C4=CC(=O)CC[C@@H]4[C@H]3CC[C@@]21C [NOMAC, nomegestrol acetate]
FSH mean concentration in the plasma [1]: 3.3 mIU/ml | LH mean concentration in the plasma [1]: 3.1 mIU/ml | Oestradiol mean concentration in the plasma [1]: 158.8 pg/mL | Ratio of ovulation-inhibiting activity (mg/day) to endometrial luteinizing activity (mg/cycle) [2]: ~0.2 | Daily dose giving endometrial conversion ([3]; daily dose): 1 mg | Dose for the entire cycle giving endometrial conversion ([3]; entire cycle): 10 mg | Effect on ovulation ([4]; given alone at 1.25 mg per day, oestradiol level in plasma increases): abolishes ovulation | Daily dose giving inhibition of ovulation and of follicle development in women ([4]; nomegestrol acetate alone, Bazin et al., 1987): 2.5 mg | LH mean concentration in the plasma ([5]; Group D (n=9): 2.5 mg NOMAC alone oral daily): 5.6 ± 0.62 mIU/ml | FSH mean concentration in the plasma ([5]; Group D: 2.5 mg NOMAC alone): 7.6 ± 0.28 mIU/ml | Oestradiol mean concentration in the plasma ([5]; Group D: 2.5 mg NOMAC alone): 31.9 ± 3.91 pg/mL | Progesterone mean concentration in the plasma ([5]; Group D: 2.5 mg NOMAC alone): 0.07 ± 0.014 ng/mL

C[C@]12CC[C@@H]3c4ccc(O)cc4CC[C@H]3[C@@H]1CC[C@@H]2O [oestradiol, 17beta-oestradiol]
Dose needed to ensure the inhibition of ovulation ([4]; oestradiol alone, Hirvonen, 1995): 4 mg
